Data set [1] is filed under the species Homo sapiens. Briefly: Selectivity ratio of IC50 for human full-length N-terminal SNAP-tagged alpha1B adrenoceptor to IC50 for human full-length N-terminal SNAP-tagged alpha1A adrenoceptor.
The target in data set [2] is T1, Alpha-1A adrenergic receptor (Homo sapiens) (UniProt P35348).
T1 sequence (whole entry): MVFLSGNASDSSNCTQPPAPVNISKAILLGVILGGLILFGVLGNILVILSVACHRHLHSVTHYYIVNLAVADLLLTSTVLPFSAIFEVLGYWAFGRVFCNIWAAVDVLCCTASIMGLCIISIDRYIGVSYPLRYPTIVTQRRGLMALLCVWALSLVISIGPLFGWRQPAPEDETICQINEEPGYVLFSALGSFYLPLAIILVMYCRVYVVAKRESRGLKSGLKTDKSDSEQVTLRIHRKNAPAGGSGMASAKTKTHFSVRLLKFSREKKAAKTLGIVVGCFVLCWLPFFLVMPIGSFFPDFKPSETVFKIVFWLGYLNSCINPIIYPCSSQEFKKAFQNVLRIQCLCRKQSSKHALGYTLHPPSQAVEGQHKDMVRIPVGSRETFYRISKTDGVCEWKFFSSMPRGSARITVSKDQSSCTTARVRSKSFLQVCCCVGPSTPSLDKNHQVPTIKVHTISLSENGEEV
Briefly: Antagonist activity at human full-length N-terminal SNAP-tagged alpha1A adrenoceptor expressed in HEK293 cells assessed as inhibition of agonist-induced calcium mobilization at 10 uM preincubated for 10 mins followed by agonist addition by fluo-4 AM dye-based assay relative to control. It counts as functional, cell-based.

Data set [3] deals with Rattus norvegicus. In words: Increase in voided volume in po dosed Sprague-Dawley rat benign prostatic hyperplasia model administered 20 mins followed by distilled watering loading measured for 2 hrs. It counts as functional.
The species entered for data set [4] is Homo sapiens. Briefly: Selectivity ratio of IC50 for human full-length N-terminal SNAP-tagged alpha1D adrenoceptor to IC50 for human full-length N-terminal SNAP-tagged alpha1A adrenoceptor.
The target of data set [5] is T2, Alpha-1D adrenergic receptor (Homo sapiens, UniProt P25100).
T2 sequence (P25100 whole entry): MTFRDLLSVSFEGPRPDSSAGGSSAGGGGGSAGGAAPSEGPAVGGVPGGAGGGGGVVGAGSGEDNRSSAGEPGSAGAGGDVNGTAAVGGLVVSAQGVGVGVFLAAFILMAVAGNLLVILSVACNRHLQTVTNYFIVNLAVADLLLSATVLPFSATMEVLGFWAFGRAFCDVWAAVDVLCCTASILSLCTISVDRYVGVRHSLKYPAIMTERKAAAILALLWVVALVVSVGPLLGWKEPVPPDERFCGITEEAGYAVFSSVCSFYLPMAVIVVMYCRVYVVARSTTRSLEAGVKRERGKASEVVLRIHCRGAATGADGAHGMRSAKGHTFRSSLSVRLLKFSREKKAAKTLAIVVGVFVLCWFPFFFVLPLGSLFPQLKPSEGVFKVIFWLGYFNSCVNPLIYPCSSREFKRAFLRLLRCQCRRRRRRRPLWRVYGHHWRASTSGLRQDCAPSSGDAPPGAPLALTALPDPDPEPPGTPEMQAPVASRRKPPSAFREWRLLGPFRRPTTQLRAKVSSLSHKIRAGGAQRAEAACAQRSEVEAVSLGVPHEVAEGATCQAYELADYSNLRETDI
Description: Antagonist activity at human full-length N-terminal SNAP-tagged alpha1D adrenoceptor expressed in HEK293 cells assessed as inhibition of agonist-induced calcium mobilization preincubated for 10 mins followed by agonist addition by fluo-4 AM dye-based assay

The test system of data set [6] is Rattus norvegicus. In words: Inhibition of micturition frequency in po dosed Sprague-Dawley rat benign prostatic hyperplasia model administered 20 mins followed by distilled watering loading measured for 2 hrs. It counts as functional.
The target of data set [7] is T3, Alpha-1B adrenergic receptor (Rattus norvegicus, UniProt P15823).
T3 sequence (P15823 whole entry): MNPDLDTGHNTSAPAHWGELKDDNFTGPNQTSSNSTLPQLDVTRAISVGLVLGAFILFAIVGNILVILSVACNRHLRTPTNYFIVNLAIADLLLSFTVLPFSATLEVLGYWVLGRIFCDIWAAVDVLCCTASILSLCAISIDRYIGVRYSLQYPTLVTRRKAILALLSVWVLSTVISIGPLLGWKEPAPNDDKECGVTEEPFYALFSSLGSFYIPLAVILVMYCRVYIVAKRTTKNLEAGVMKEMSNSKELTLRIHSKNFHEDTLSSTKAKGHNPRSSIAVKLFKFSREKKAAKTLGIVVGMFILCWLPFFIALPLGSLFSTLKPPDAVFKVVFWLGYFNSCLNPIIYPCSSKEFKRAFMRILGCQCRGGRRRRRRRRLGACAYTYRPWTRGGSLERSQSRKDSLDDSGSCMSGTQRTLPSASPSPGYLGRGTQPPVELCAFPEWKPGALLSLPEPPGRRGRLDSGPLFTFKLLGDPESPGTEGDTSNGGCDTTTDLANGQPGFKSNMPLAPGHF
In words: Antagonist activity at alpha1B adrenoceptor in Sprague-Dawley rat aorta assessed as inhibition of norepinephrine-induced smooth muscle contraction after 20 mins.

Data set [8] addresses Voltage-gated inwardly rectifying potassium channel KCNH2 (Homo sapiens, UniProt Q12809). Briefly: Inhibition of human ERG.
In data set [9] the target is T4, Alpha-1A adrenergic receptor (Homo sapiens, UniProt P35348).
T4 sequence (P35348 whole entry): T1 sequence (whole entry)
Description: Antagonist activity at human full-length N-terminal SNAP-tagged alpha1A adrenoceptor expressed in HEK293 cells assessed as inhibition of agonist-induced calcium mobilization preincubated for 10 mins followed by agonist addition by fluo-4 AM dye-based assay

In data set [10] the target is T5, Alpha-1A adrenergic receptor (Rattus norvegicus, UniProt P43140).
T5 sequence (P43140 whole entry): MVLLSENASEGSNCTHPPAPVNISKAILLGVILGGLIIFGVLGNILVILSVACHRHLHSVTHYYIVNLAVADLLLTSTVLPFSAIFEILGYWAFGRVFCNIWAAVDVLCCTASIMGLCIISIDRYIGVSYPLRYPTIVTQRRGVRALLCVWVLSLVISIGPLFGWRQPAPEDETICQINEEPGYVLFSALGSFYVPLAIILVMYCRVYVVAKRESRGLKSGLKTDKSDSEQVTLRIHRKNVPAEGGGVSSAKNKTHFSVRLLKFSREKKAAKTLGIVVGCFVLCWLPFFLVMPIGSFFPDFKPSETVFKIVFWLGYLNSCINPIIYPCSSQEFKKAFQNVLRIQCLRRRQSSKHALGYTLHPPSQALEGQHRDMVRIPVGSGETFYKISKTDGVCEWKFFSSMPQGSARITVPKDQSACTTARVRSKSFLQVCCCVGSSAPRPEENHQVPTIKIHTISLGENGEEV
In words: Antagonist activity at alpha1A adrenoceptor in Sprague-Dawley rat urethra assessed as inhibition of norepinephrine-induced smooth muscle contraction after 20 mins.

A short description of data set [11]: Selectivity ratio of IC50 for alpha1B adrenoceptor in Sprague-Dawley rat aorta to IC50 for alpha1A adrenoceptor in Sprague-Dawley rat urethra.
Data set [12] addresses T6, Alpha-1B adrenergic receptor (Homo sapiens, UniProt P35368).
T6 sequence (P35368 whole entry): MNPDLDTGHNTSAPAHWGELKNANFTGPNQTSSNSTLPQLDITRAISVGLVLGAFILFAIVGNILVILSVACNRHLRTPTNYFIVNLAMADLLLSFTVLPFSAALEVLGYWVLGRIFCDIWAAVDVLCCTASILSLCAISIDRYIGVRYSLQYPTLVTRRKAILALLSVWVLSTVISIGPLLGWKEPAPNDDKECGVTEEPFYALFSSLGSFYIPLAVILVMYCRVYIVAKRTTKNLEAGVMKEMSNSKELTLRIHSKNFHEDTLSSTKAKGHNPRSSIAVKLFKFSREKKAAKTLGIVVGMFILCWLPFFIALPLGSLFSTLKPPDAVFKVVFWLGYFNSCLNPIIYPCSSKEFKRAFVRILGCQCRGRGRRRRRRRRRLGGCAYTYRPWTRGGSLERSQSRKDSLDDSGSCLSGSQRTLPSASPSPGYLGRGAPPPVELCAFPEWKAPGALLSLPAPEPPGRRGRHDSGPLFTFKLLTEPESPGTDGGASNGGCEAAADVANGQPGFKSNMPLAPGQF
Description: Antagonist activity at human full-length N-terminal SNAP-tagged alpha1B adrenoceptor expressed in HEK293 cells assessed as inhibition of agonist-induced calcium mobilization preincubated for 10 mins followed by agonist addition by fluo-4 AM dye-based assay

Data set [13] in a line: Toxicity in patient assessed as orthostatic hypotension. The settings on record: human, in vivo.

This is an account of results in ChEMBL document CHEMBL3856276, “Design, Synthesis, and Biological Evaluation of Novel Tetrahydroprotoberberine Derivatives (THPBs) as Selective α1A-Adrenoceptor Antagonists” (J Med Chem, 2016).

The structures appear in SMILES notation.

Sequence of Voltage-gated inwardly rectifying potassium channel KCNH2 (Q12809 whole entry): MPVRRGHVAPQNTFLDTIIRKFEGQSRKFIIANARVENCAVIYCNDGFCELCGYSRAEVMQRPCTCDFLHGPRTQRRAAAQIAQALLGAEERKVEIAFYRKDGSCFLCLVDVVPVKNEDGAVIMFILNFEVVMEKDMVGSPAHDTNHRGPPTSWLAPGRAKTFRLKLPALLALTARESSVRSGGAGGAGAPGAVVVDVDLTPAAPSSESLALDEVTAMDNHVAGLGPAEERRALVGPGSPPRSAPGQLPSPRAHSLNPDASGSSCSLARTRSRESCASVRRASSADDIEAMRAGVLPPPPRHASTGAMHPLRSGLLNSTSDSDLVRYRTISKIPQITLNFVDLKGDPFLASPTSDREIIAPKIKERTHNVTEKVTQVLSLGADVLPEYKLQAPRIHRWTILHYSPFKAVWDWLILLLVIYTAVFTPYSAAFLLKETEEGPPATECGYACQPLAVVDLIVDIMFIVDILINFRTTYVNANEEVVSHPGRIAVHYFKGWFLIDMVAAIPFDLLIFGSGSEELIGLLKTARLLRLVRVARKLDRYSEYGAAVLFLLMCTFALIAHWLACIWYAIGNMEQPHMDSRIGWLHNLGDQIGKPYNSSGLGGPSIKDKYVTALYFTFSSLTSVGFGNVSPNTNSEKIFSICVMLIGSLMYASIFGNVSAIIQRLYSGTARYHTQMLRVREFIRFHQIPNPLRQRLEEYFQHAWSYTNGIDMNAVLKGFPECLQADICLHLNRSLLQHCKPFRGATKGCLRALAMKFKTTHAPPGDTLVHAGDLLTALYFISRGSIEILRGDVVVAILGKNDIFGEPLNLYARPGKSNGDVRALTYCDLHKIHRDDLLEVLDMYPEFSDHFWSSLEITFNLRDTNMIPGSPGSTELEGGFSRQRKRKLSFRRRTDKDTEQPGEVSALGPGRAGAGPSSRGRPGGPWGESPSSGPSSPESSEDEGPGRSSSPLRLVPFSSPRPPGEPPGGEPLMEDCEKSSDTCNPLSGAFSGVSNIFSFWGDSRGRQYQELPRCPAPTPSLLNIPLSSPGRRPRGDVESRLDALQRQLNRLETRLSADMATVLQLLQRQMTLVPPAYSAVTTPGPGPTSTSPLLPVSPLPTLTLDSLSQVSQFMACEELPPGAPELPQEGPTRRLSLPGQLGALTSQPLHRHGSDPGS

For the compound `COc1ccc2[nH]c3c(c2c1)CC1c2cc4c(cc2CCN1C3)OCO4` (centres undefined), the Ratio IC50 in data set [1] is more than 568; in [4] it was 229; in [11] it was more than 22.02. For the same compound, in [2], the inhibition was 99%. Further, the minimal effective dose in data set [3] (read-out: MED) was found to be 3 mg/kg; in data set [6] (read-out: MED), 10 mg/kg. Moreover, the 50% inhibitory concentration (IC50) is 4.04 µM in data set [5]; more than 1000 nM in data set [7]; 16.5 µM in data set [8]; 17.6 nM in data set [9]; 45.4 nM in data set [10]; more than 10 µM in data set [12].

Turning to `C[C@H](Cc1cc2c(c(C(N)=O)c1)N(CCCO)CC2)NCCOc1ccccc1OCC(F)(F)F` [SILODOSIN], the inhibition in [2] is 100%; in [6], “Dose-dependent effect”. In addition, the Activity result was “Dose-dependent effect” in data set [3] and 2.6% in [13]. In addition, the figures for the half-inhibitory concentration (IC50) in data set [7], in data set [8] and in [10] were 90.1 nM, 8.2 µM and 0.8 nM, respectively.
